In one data set the target is T1, α1a-AR (Homo sapiens, UniProt P35348).
T1 construct: expressed in transfected cells; host or cells: COS-7 cells (membranes)
T1 sequence (P35348 1-455 isoform P35348-4): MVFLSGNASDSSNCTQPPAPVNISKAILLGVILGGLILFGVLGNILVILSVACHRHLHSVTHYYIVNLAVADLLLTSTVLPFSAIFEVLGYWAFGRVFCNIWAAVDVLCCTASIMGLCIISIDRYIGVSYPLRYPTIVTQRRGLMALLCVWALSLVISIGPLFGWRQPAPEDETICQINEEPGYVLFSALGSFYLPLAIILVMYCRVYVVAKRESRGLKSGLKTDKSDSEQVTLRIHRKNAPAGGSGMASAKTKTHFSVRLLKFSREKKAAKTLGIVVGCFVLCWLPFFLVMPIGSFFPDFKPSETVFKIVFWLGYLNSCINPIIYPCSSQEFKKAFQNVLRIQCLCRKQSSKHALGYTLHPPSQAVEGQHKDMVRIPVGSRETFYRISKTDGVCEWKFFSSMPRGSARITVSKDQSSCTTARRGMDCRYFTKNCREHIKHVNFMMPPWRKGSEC
Briefly: α1-Adrenergic receptor radio-ligand binding assay, α1a subtype. How it is done:
(§1) Membranes were prepared from COS-7 cells (African Green monkey kidney SV40-transformed cells) that had been transfected with one of the three α1-AR subtypes (Genbank accession number for the α1a subtype: AF013261; Genbank accession number for the α1b subtype: NM000679; Genbank accession number for the α1d subtype: NM000678) using the following method: COS cells from ten 100 mm tissue culture plates were scraped into a 5 mL volume of TE (a mixture of 50 mM Tris-HCl, 5 mM EDTA, pH 7.4). […] The disrupted cells were centrifuged at 1000×g for 10 min at 4° C. Supernatants were centrifuged at 34,500×g for 20 min at 4° C. The membrane pellets were suspended in a 2 mL volume of TNE (a mixture of 50 mM Tris-HCl, 5 mM EDTA and 150 mM NaCl at pH 7.4). An aliquot of the membrane suspension was stored at −70° C. until use. The protein concentration was determined using the BioRad “DC” protein assay kit following membrane solubilization with Triton X-100.
(§2) Triplicate determinations of radio-ligand binding in the presence of increasing concentrations of testing compound were made. The reagents were added to 96-well polypropylene plate wells. […] The plate was incubated at rt for 1 hr. The contents of the wells were filtered through a glass filter (type C) (GF/C) membrane Unifilter plate (Packard Instruments) using the Packard Filtermate cell harvester. The filter plates were dried in a vacuum oven for 30 min at 40° C. 25 μL Microscint 20 liquid scintillation fluid (Packard Instuments) was added to each well. The radioactive content was analyzed in the TopCount microplate scintillation counter (Packard Instruments).

The target of the next data set is T2, α1b-AR (Homo sapiens, UniProt P35368).
T2 construct: expressed in transfected cells; host or cells: COS-7 cells (membranes)
T2 sequence (P35368 1-520): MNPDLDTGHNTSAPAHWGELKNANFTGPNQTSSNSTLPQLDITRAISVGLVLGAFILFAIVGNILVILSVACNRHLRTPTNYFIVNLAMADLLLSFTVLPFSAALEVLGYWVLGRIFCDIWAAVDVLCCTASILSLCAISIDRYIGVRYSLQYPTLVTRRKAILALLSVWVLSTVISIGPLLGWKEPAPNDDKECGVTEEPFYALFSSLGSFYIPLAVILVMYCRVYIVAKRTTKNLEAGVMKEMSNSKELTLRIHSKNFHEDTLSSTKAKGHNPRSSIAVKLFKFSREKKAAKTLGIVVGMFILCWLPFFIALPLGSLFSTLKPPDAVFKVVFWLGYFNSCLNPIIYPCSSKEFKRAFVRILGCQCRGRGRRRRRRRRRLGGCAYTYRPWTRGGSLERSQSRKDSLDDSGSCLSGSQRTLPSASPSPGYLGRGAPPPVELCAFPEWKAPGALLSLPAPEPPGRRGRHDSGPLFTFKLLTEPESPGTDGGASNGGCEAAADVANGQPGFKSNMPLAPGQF
Briefly: α1-Adrenergic receptor radio-ligand binding assay, α1b subtype. How it is done:
as §1, §2

The target in another data set is T3, α1d-AR (Homo sapiens, UniProt P25100).
T3 construct: expressed in transfected cells; host or cells: COS-7 cells (membranes)
T3 sequence (P25100 1-572): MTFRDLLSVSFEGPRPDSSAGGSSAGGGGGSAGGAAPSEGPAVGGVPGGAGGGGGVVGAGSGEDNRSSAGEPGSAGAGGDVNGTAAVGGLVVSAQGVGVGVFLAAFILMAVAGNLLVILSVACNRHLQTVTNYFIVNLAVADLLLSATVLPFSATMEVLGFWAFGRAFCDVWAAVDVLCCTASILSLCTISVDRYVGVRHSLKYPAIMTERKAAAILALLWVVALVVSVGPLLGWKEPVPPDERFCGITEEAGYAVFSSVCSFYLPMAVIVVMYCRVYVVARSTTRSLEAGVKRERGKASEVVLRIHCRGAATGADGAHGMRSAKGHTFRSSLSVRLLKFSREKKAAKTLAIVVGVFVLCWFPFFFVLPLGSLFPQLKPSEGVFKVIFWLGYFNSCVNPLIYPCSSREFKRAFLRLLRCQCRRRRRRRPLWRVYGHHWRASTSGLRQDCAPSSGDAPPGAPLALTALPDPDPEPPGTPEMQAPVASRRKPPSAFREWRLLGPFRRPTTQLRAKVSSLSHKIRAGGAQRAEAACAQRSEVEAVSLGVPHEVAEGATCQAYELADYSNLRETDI
Put plainly: α1-Adrenergic receptor radio-ligand binding assay, α1d subtype. How it is done:
as §1, §2

Where [1] appears, read: 125I-HEAT, membranes of COS-7 cells transfected with α1a subtype, rt 1 hr, read-out: Receptor Binding, Ki α1a-AR.
The mark [2] stands for this setting: 125I-HEAT, membranes of COS-7 cells transfected with α1b subtype, rt 1 hr, read-out: Receptor Binding, Ki α1b-AR.
[3] abbreviates: 125I-HEAT, membranes of COS-7 cells transfected with α1d subtype, rt 1 hr, read-out: Receptor Binding, Ki α1d-AR.

The source of these data is patent US7470711B2, “Piperidinyl substituted cyclohexane-1,4-diamines” (Janssen Pharmaceutica N.V., priority 2005, dated 2008).

Structures can show the parent of a compound that is named as a salt. Where two headings read alike, the source gives them in different places.

As for `COc1ccc(Cl)cc1S(=O)(=O)N[C@H]1CC[C@@H](N2CCC(c3ccccc3OCC(F)(F)F)CC2)CC1` [Cpd 17, 5-chloro-2-methoxy-N-cis-(4-{4-[2-(2,2,2-trifluoro-ethoxy)-phenyl]-piperidin-1-yl}-cyclohexyl)-benzenesulfonamide], the melting point came to 200 °C. In addition, on α1a-AR (setting [1]), the Ki worked out at 6.2 nM. Also, on α1b-AR (setting [2]), the Ki is 216 nM. The same compound registered a Ki at α1d-AR of 1.5 nM.

Compound `COc1ccc(S(=O)(=O)N[C@H]2CC[C@@H](N3CCC(c4ccccc4OC(C)C)CC3)CC2)cc1OC` (as salt: fumarate) [Cpd 1, N-cis-{4-[4-(2-isopropoxy-phenyl)-piperidin-1-yl]-cyclohexyl}-3,4-dimethoxy-benzenesulfonamide] came in with a melting point of 221 °C.

Compound `COc1ccc(Cl)cc1S(=O)(=O)N[C@H]1CC[C@H](N2CCC(c3ccccc3OCC(F)(F)F)CC2)CC1` [Cpd 18, 5-chloro-2-methoxy-N-trans-(4-{4-[2-(2,2,2-trifluoro-ethoxy)-phenyl]-piperidin-1-yl}-cyclohexyl)-benzenesulfonamide] gave a melting point of 197 °C. Also, the Ki at α1a-AR amounted to 10.4 nM. The Ki on α1b-AR (setting [2]) came to 703 nM. For the same compound, the Ki on α1d-AR (setting [3]) is 35.9 nM.

`COc1ccc(S(=O)(=O)N[C@H]2CC[C@@H](N3CCC(c4ccccc4OCC(F)F)CC3)CC2)cc1OC` [Cpd 29, N-cis-(4-{4-[2-(2,2-difluoro-ethoxy)-phenyl]-piperidin-1-yl}-cyclohexyl)-3,4-dimethoxy-benzenesulfonamide] displayed a melting point of 219 °C. For the same compound, the Ki on α1a-AR (setting [1]) turned out to be 12 nM. The Ki on α1b-AR (setting [2]) came out at 300 nM. Moreover, the Ki at α1d-AR (setting [3]) was 4.1 nM.

Compound `COc1ccc(S(=O)(=O)N[C@H]2CC[C@H](N3CCC(c4ccccc4OCCF)CC3)CC2)cc1OC` [Cpd 28, N-trans-(4-{4-[2-(2-fluoro-ethoxy)-phenyl]-piperidin-1-yl}-cyclohexyl)-3,4-dimethoxy-benzenesulfonamide] showed a melting point of 142 °C. The Ki at α1a-AR (setting [1]) came to 68.8 nM. Further, the Ki at α1b-AR (setting [2]) was 4400 nM. Moreover, the inhibition constant Ki at α1d-AR (setting [3]) came out at 48.6 nM.

On to `O=S(=O)(N[C@H]1CC[C@H](N2CCC(c3ccccc3OCC(F)(F)F)CC2)CC1)c1cc(Cl)ccc1F` [Cpd 20, 5-chloro-2-fluoro-N-trans-(4-{4-[2-(2,2,2-trifluoro-ethoxy)-phenyl]-piperidin-1-yl}-cyclohexyl)-benzenesulfonamide], for which the melting point was 227 °C. The Ki on α1a-AR stood at 4.7 nM. Moreover, the Ki at α1b-AR (setting [2]) turned out to be 786 nM. Further, the Ki on α1d-AR (setting [3]) was determined as 43.9 nM.

`O=S(=O)(N[C@H]1CC[C@H](N2CCC(c3ccccc3OCC(F)(F)F)CC2)CC1)c1ccc(OC(F)F)cc1` [Cpd 26, 4-difluoromethoxy-N-trans-(4-{4-[2-(2,2,2-trifluoro-ethoxy)-phenyl]-piperidin-1-yl}-cyclohexyl)-benzenesulfonamide]: the melting point worked out at 155 °C. At α1a-AR, this compound had a Ki of 37.5 nM. For the same compound, on α1b-AR (setting [2]), the inhibition constant Ki was found to be 302 nM. The inhibition constant (Ki) on α1d-AR (setting [3]) was determined as 85.7 nM.

`CC(C)Oc1ccccc1C1CCN([C@H]2CC[C@@H](NS(=O)(=O)c3ccc(F)c(F)c3)CC2)CC1` [Cpd 3, 3,4-difluoro-N-cis-{4-[4-(2-isopropoxy-phenyl)-piperidin-1-yl]-cyclohexyl}-benzenesulfonamide] showed a melting point of 176 °C. In addition, the Ki on α1a-AR (setting [1]) amounted to 3 nM. Also, the Ki at α1b-AR (setting [2]) was found to be 470 nM. The Ki at α1d-AR (setting [3]) was determined as 7.3 nM.

In turn, `COc1ccc(S(=O)(=O)N[C@H]2CC[C@@H](N3CCC(c4ccccc4OCCF)CC3)CC2)cc1OC` [Cpd 27, N-cis-(4-{4-[2-(2-fluoro-ethoxy)-phenyl]-piperidin-1-yl}-cyclohexyl)-3,4-dimethoxy-benzenesulfonamide] returned a melting point of 225 °C. Further, the inhibitory constant (Ki) on α1a-AR (setting [1]) amounted to 10.9 nM. Also, on α1b-AR (setting [2]), the inhibitory constant (Ki) was determined as 354 nM. In addition, the Ki at α1d-AR (setting [3]) was found to be 8.8 nM.

Regarding `O=S(=O)(N[C@H]1CC[C@H](N2CCC(c3ccccc3OCC(F)(F)F)CC2)CC1)c1cccc(OC(F)F)c1` [Cpd 24, 3-difluoromethoxy-N-trans-(4-{4-[2-(2,2,2-trifluoro-ethoxy)-phenyl]-piperidin-1-yl}-cyclohexyl)-benzenesulfonamide], the melting point stood at 169 °C. Besides, the inhibition constant (Ki) on α1a-AR (setting [1]) came to 12 nM. Further, at α1b-AR (setting [2]), the inhibition constant Ki is 355 nM. For the same compound, the Ki on α1d-AR (setting [3]) came to 70 nM.

As to `O=S(=O)(N[C@H]1CC[C@@H](N2CCC(c3ccccc3OCC(F)(F)F)CC2)CC1)c1cc(Cl)ccc1F` [Cpd 19, 5-chloro-2-fluoro-N-cis-(4-{4-[2-(2,2,2-trifluoro-ethoxy)-phenyl]-piperidin-1-yl}-cyclohexyl)-benzenesulfonamide], the melting point is 204 °C. In addition, the Ki on α1a-AR was 5.8 nM. The inhibition constant (Ki) at α1b-AR (setting [2]) is 181 nM. Moreover, the inhibition constant Ki on α1d-AR (setting [3]) was determined as 0.97 nM.

`CC(C)Oc1ccccc1C1CCN([C@H]2CC[C@H](NS(=O)(=O)c3ccc(F)c(F)c3)CC2)CC1` [Cpd 4, 3,4-difluoro-N-trans-{4-[4-(2-isopropoxy-phenyl)-piperidin-1-yl]-cyclohexyl}-benzenesulfonamide] gave a melting point of 239 °C. The Ki on α1d-AR was 88.6 nM.

In the case of `O=S(=O)(N[C@H]1CC[C@@H](N2CCC(c3ccccc3OC3CC3)CC2)CC1)c1ccc2c(c1)OCO2` [Cpd 21, benzo[1,3]dioxole-5-sulfonic acid cis-{4-[4-(2-cyclopropoxy-phenyl)-piperidin-1-yl]-cyclohexyl}-amide], the inhibition constant (Ki) was 15.6 nM on α1a-AR, 275 nM at α1b-AR and 13 nM on α1d-AR.

In the case of `COc1ccc(S(=O)(=O)N[C@H]2CC[C@@H](N3CCC(c4ccccc4OCC(F)(F)F)CC3)CC2)cc1OC` [Cpd 5, 3,4-dimethoxy-N-cis-(4-{4-[2-(2,2,2-trifluoro-ethoxy)-phenyl]-piperidin-1-yl}-cyclohexyl)-benzenesulfonamide], the Ki on α1a-AR came out at 3 nM; at α1b-AR it was 470 nM; at α1d-AR, 7.3 nM.

Regarding `COc1ccc(S(=O)(=O)N[C@H]2CC[C@@H](N3CCC(c4ccccc4OCC(F)(F)F)CC3)CC2)cc1OC` (as salt: fumarate) [Cpd 5, 3,4-dimethoxy-N-cis-(4-{4-[2-(2,2,2-trifluoro-ethoxy)-phenyl]-piperidin-1-yl}-cyclohexyl)-benzenesulfonamide], the melting point was 201 °C (dec.).

The term Ki denotes the equilibrium dissociation constant of an inhibitor or competing ligand from its target. Usually melting point stands for the temperature, or range, at which the solid turns liquid.
